Test results: patent US9096499B2, “Compounds for treatment of cell proliferative diseases” (Board of Regents, The University of Texas System, priority 2003, dated 2015)
Entries after “also recorded” stand apart in the source; their conditions may differ.

Legend:
MM-1 MM cells = assay: MTT cell growth and survival assay, MM-1 MM cells; assay type: cell-based; conditions: for IC50 / Growth and survival of MM1 cells (in words): 72 hours; for IC50: MTT assay, read-out: IC50 (μM) MM1; for Growth and survival of MM1 cells (in words): MTT, FIG. 2A/3A
Description: (§1) To determine the effect of AG and WP compounds on MM cell growth/survival, MM cells were incubated with the indicated concentration of AG or WP for 72 hours before cell growth and survival were estimated by MTT assay.
(§2) To determine the effect of AG and WP compounds on MM cell growth/survival MM cells were incubated with the indicated concentration of AG or WP for 72 hours before cell growth and survival were estimated by MTT assay.

[1] = tested on: MM colonies from bone marrow aspirates of MM patients; assay: Primary MM colony formation in methyl-cellulose; assay type: cell-based, human; conditions: 12 μM, 7 to 10 days
Description: To determine whether these compounds effect primary MM colony growth bone marrow aspirates from MM patients were partially-purified by magnetic bead separation and analyzed for immunoglobulin heavy-chain gene rearrangement by PCR. Cells were grown as colonies in methyl-cellulose in the presence or absence of AG compound as noted for 7 to 10 days. Control colonies were examined for Ig heavy chain gene rearrangement to confirm the clonal nature of the population.

OCI-My5 cells = assay: Caspase activation and PARP cleavage in OCI-My5 cells; assay type: cell-based; conditions: 12.5 and 25 μM
Description: To determine whether AG1801 effects caspase activation in MM cells, OCI-My5 cells were treated as described above before cell lysates were examined for casapase activation and PARP cleavage. […] At 12.5 and 25 μM, AG490 was ineffective in caspase activation and PARP clevage in these cells.

c-myc mRNA = assay: Semi-quantitative PCR of c-myc mRNA in MM-1 cells; assay type: cell-based; conditions: 25 μM, 30 min
Description: (§3) To determine the temporal effects and mechanism of action of AG490 and AG1801 action on c-myc expression in MM cells, MM-1 cells were incubated with 0, 25, or 50 μM of AG490 or AG1801 and harvested at 30, 60, or 120 min. Lysates were immunoblotted for c-myc or actin as a protein loading control. […] Semi-quantitative PCR was used to measure changes in c-myc mRNA extracted from cells treated for 30 min with AG1801 at 25 μM. GAPDH PCR was used as a control.

IFN-α signaling = IFN-α signaling (Stat1) immunoblot in MM-1 cells; assay type: cell-based; conditions: 12 and 25 μM, IFN-α 10 min
Description: (§4) To examine the effect of newly synthesized AG and WP compounds on cytokine-mediated Stat activation, multiple myeloma (MM-1) cells were pretreated with AG490 or AG1801 at 2.5, 12, and 25 μM concentrations (for 2 hr) before stimulating cells with IL-6 or IFN-α for 10 min. Stat3 and Stat1 expression and activation were examined by immunoblotting.

OCI MM cells = assay: MTT cell growth and survival assay, OCI MM cells; assay type: cell-based; conditions: 72 hours; for IC50: MTT assay; for Growth and survival of OCI cells (in words): MTT, FIG. 2B/3B
Description: as §1, §2

c-myc [2] = assay: c-myc protein expression by immunoblot in MM cells; assay type: cell-based; set-up: key to C-Myc: (inhibition = ↓); (no effect) = —; conditions: for C-Myc: c-myc downregulation, immunoblot; for Suppression of c-myc protein expression: 1.56-25 μM WP compounds, CHX 0-30 min at much higher concentrations
Description: (§5) To determine the effect of compounds on both Stat3 activation and c-myc protein expression MM-1, OCI-My5 and U266 cells were incubated with 25 μM of AG1801, AG490, WP1038, WP1039, WP1051, or WP1052 for 2 hours before cells were stimulated with 2 ng/ml IL-6 for 10 min. Cell lysates were prepared and immunoblotted for p-Stat3, Stat3, c-myc and actin (as a control).
as §3
These compounds were evaluated for their signal inhibitory and anti-proliferative/apoptotic properties on multiple myeloma, lymphoma and chronic myelogenous leukemia cell lines. WP1015, WP1034, AG1801, and AG490 were tested across a range of concentrations (6,12, and 25 μM) for their ability to inhibit c-myc expression using immunoblots.
These immunoblots tested a range of concentrations (1.56-25 μM for WP compounds) and used β-actin as a control.

U266 MM cells = assay: MTT cell growth and survival assay, U266 MM cells; assay type: cell-based; conditions: 72 hours; for Growth and survival of U266 cells (in words): MTT, FIG. 2C/3C; for IC50: Homo sapiens, U-266, MTT assay
Description: as §1, §2

Stat3 [3] = assay: IL-6 mediated Stat3 activation (p-Stat3 immunoblot) in MM cells; assay type: cell-based; set-up: key to P-Stat 3: (inhibition = ↓); (no effect) = —; conditions: for P-Stat 3: Stat3 inhibition, immunoblot
Description: as §4
as §5, with “control). Both Stat3 activation and c-myc expression were effected by WP and AG compounds.” for “control).”

c-myc/Stat3 = assay: Stat3/c-myc inhibitory activity in MM-1 cells (FIG. 7); assay type: cell-based
Excerpt: An improved inhibition of c-myc/Stat3 by WP1066, WP1130, and WP1129 was observed (FIG. 7). The compounds were compared with regard to their Stat3/c-myc inhibitory activity in MM-1 cells.

Stat3 [4] = assay: IL-6 mediated Stat3 activation immunoblot in LP cells; assay type: cell-based; conditions: 3-25 μM
Description: (§6) Further studies were conducted to determine the dose and time dependent effects of these new compounds on IL-6 mediated Stat3 activation, c-myc protein expression and anti-proliferative of LP and other cell types.

c-myc [5] = assay: c-myc protein immunoblot in LP non-Hodgkin lymphoma cells; assay type: cell-based; conditions: for c-myc expression: 3-25 μM
Description: Additional cell types were examined for response to treatment with WP1066.
as §6

[6] = tested on: human A375 melanoma tumors; assay: A375 melanoma tumors in nude mice; assay type: in vivo, Swiss nude mice; conditions: 40 mg/kg i.p. every other day, 8 injections from day 7, to day 21
Description: The results of animal studies of human A375 melanoma tumors growing in nude mice, treated with WP1066 after tumors reached a palpable size, are shown in FIG. 8. The following animal model was used to evaluate the anti-tumor and anti-cancer effects of the compounds: on Day 0, A375 cells were suspended to 20×10^6 cells/ml in RPMI 1640 medium. On day 0, 0.2 ml of this suspension containing A375 cells was injected (s.c.) into female Swiss nude mice 6-7 weeks of age. On Day 7, 40 mg/kg of WP1066 was injected (i.p.) into the above mice in a 0.1 ml suspension of DMSO/PEG300 (50/50) on a qd, every other day schedule for 8 injections. Five mice per experimental group were used, including a vehicle (DMSO/PEG300) control group. Animals received 40 mg/kg WP1066 every other day […] for a total of 8 injections. The control group reached maximum tumor burden at day 21, and for this reason the experiment was stopped.

[7] = tested on: MM-1, Mino, WDT-2, WDT-3, K562, K562-R cell lines; assay: Anti-proliferative/apoptotic action on c-myc overexpressing cell lines (FIG. 5); assay type: cell-based; conditions: FIG. 5, incl. Imatinib-resistant K562-R
Excerpt: The anti-proliferative/apoptotic actions of WP1066 were also examined on cell lines known to overexpress c-myc. […] Thus WP1066 clearly exerts a potent inhibition of cell proliferation and/or survival in multiple cancer cell lines, and WP1066 will be used as a therapeutic.

## N#C/C(=C\c1ccc([N+](=O)[O-])cc1)C(=O)NCc1ccccc1 [AG 1801]
MM-1 MM cells
  IC50: 7.5 µM
  Growth and survival of MM1 cells (in words): effective in reducing the growth and survival; also recorded: demonstrated increased potency compared to AG490
[1]
  Inhibition of MM colony formation: completely inhibited MM colony formation
OCI-My5 cells
  Caspase activation (caspase 3 and caspase 8): activated both upstream and downstream caspases
  PARP cleavage: increased PARP clevage
c-myc mRNA
  c-myc mRNA expression: minimal effects
IFN-α signaling
  Effect on IFN-α signaling: without effecting IFN-α
OCI MM cells
  IC50: 12 µM
  Growth and survival of OCI cells (in words): effective in reducing the growth and survival; also recorded: demonstrated increased potency compared to AG490
c-myc [2]; MM-1 cells, 25 and 50 μM, 30, 60, 120 min
  c-myc expression, temporal effects: rapidly reduced c-myc expression
c-myc [2]
  C-Myc: ↓
U266 MM cells
  Growth and survival of U266 cells (in words): effective in reducing the growth and survival; also recorded: demonstrated increased potency compared to AG490
  IC50: 9 µM
Stat3 [3]; MM-1 cells, 2 hr pretreatment, 12 and 25 μM, IL-6 10 min
  Suppression of IL-6 signaling (Stat3 activation): effective in suppressing IL-6 signaling
Stat3 [3]
  P-Stat 3: ↓

## C[C@@H]1C[C@@H]([C@H](O)CC2CC(=O)NC(=O)C2)C(=O)[C@@H](C)C1 [CHX, cycloheximide, reference compound]
c-myc [2]
  Suppression of c-myc protein expression: did not result in the rapid reduction of c-myc

## CCC[C@H](NC(=O)/C(C#N)=C/c1cccc(Br)n1)c1ccccc1 [WP1130]
MM-1 MM cells; FIG. 6
  IC50 against MM-1 myeloma relative to WP1066: even better than compound WP1066
c-myc/Stat3
  Inhibition of c-myc/Stat3: Strong inhibition

## N#C/C(=C\c1cccc(Br)n1)C(=O)NCc1ccccc1 [WP 1015]
MM-1 MM cells
  IC50: 1.9 µM
Stat3 [4]
  IL-6 mediated Stat3 activation: blocked IL-6 mediated Stat3 activation
c-myc [2]; 6, 12, 25 μM, AG490 up to 50 μM
  Inhibition of c-myc protein expression: more active than previously synthesized WP compounds
c-myc [2]
  C-Myc: ↓
Stat3 [3]; MM-1 cells
  Inhibition of Stat3 phosphorylation: more effective in inhibiting Stat3 phosphorylation
c-myc [5]; LP cells
  c-myc expression: reduced c-myc expression

## C[C@@H](NC(=O)/C(C#N)=C/c1ccc([N+](=O)[O-])cc1)c1ccccc1 [WP 1034]
MM-1 MM cells
  IC50: 3.5 µM
  Growth and survival of MM1 cells (in words): effective in reducing the growth and survival; also recorded: demonstrated increased potency compared to AG490
OCI MM cells
  IC50: 6.3 µM
  Growth and survival of OCI cells (in words): effective in reducing the growth and survival; also recorded: demonstrated increased potency compared to AG490
c-myc [2]
  C-Myc: ↓
U266 MM cells
  Growth and survival of U266 cells (in words): effective in reducing the growth and survival; also recorded: demonstrated increased potency compared to AG490
  IC50: 4.5 µM

## C[C@@H](NC(=O)/C(C#N)=C/c1ccc([N+](=O)[O-])c(O)c1)c1ccccc1 [WP 1038]
MM-1 MM cells
  IC50: 6.2 µM
OCI MM cells
  IC50: > 12.5 µM
c-myc [2]
  C-Myc: ↓
U266 MM cells
  IC50: 11.8 µM
Stat3 [3]
  P-Stat 3: ↓

## C[C@H](NC(=O)/C(C#N)=C/c1ccc([N+](=O)[O-])cc1)c1ccccc1 [WP 1050]
MM-1 MM cells
  IC50: 2.1 µM
  Growth and survival of MM1 cells (in words): demonstrated increased potency compared to AG490
OCI MM cells
  IC50: > 12.5 µM
  Growth and survival of OCI cells (in words): demonstrated increased potency compared to AG490
c-myc [2]
  C-Myc: ↓
U266 MM cells
  Growth and survival of U266 cells (in words): demonstrated increased potency compared to AG490
  IC50: 5 µM

## C[C@H](NC(=O)/C(C#N)=C/c1ccc([N+](=O)[O-])c(O)c1)c1ccccc1 [WP 1051]
MM-1 MM cells
  IC50: 5.5 µM
OCI MM cells
  IC50: > 12.5 µM
c-myc [2]
  C-Myc: ↓
U266 MM cells
  IC50: 11.1 µM
Stat3 [3]
  P-Stat 3: ↓

## C[C@H](NC(=O)/C(C#N)=C/c1ccccn1)c1ccccc1 [WP 1065]
MM-1 MM cells
  IC50: 3 µM

## C[C@H](NC(=O)/C(C#N)=C/c1cccc(Br)n1)c1ccccc1 [WP 1066]
MM-1 MM cells
  IC50: 1.3 µM
c-myc/Stat3
  Inhibition of c-myc/Stat3: Strong inhibition
[6]
  Tumor size / tumor volume in vivo: decrease tumor size; also recorded: reduces tumor volume
[7]
  Cell proliferation and/or survival in multiple cancer cell lines: dose-dependent anti-tumor effects; also recorded: effective in reducing cell proliferation
Stat3 [4]
  IL-6 mediated Stat3 activation: blocked IL-6 mediated Stat3 activation; also recorded: slightly better activity than WP1015
c-myc [2]
  Suppression of c-myc protein expression: more active in suppressing c-myc protein expression than WP1015
  C-Myc: ↓
c-myc [5]; LP cells
  c-myc expression: reduced c-myc expression
c-myc [5]; LP cells, 5, 15, 30, 60 min
  Downregulation of c-myc protein: rapid downregulation of c-myc protein
c-myc [5]; LP cells, 5 min
  Reduction in c-myc at shortest incubation: strong reduction

## N#C/C(=C\c1cc(O)ccc1[N+](=O)[O-])C(=O)NCc1ccccc1 [WP 1073]
MM-1 MM cells
  IC50: > 2.5 µM

## N#C/C(=C\c1cccc([N+](=O)[O-])c1)C(=O)NCc1ccccc1 [WP 1074]
MM-1 MM cells
  IC50: > 2.5 µM

## N#C/C(=C\c1cccnc1)C(=O)NCc1ccccc1 [WP 1075]
MM-1 MM cells
  IC50: > 2.5 µM

## CN(C)c1ccc(/C=C(\C#N)C(=O)NCc2ccccc2)c([N+](=O)[O-])c1 [WP 1076]
MM-1 MM cells
  IC50: > 2.5 µM

## N#C/C(=C\c1ccc(Cl)c([N+](=O)[O-])c1)C(=O)NCc1ccccc1 [WP 1077]
MM-1 MM cells
  IC50: 2.5 µM
